The record followed here is patent US10106535B2, “Histone deacetylase inhibitors and compositions and methods of use thereof” (CHDI Foundation, Inc., priority 2013, dated 2018).

Structures are written as SMILES.

By IC50 is commonly meant the point on the concentration scale where inhibition reaches its midpoint.

For the assay, the system named is cellular histone deacetylase enzymatic activity in Jurkat E6-1 cells. Kind of assay: Inhibition of cellular HDAC activity in Jurkat E6-1 cells, fluorogenic substrate Boc-Lys(Tfa)-AMC. The assay is classed as cell-based. Particulars: Homo sapiens, read-out: Cell IC50. An excerpt:
Example 50: Analysis of Inhibition of Cellular HDAC Activity with Class IIa Histone Deacetylase (HDAC) Inhibitors
The potency of Class IIa Histone Deacetylase (HDAC) inhibitors is quantified by measuring the cellular histone deacetylase enzymatic activity using the fluorogenic substrate, Boc-Lys(Tfa)-AMC. After penetration in Jurkat E6-1 cells, the substrate is deacetylated to Boc-Lys-AMC. After cell lysis and cleavage by trypsin, the fluorophore AMC is released from the deacetylated substrate only. The fluorescence of the sample is directly related to the histone deacetylase activity in the sample.
Jurkat E6.1 cells are cultured according to standard cell culture protocols in Jurkat E6.1 Growth Media (RPMI without phenol red, 10% FBS, 10 mM HEPES, and 1 mM Sodium Pyruvate). Jurkat E6.1 cells are counted using a Coulter Counter and resuspended in Jurkat E6.1 growth media at a concentration of 75,000 cells/35 μl. 35 μl or 75,000 cells is seeded into Greiner microtitre assay plates. The plates are then incubated at 37° C. and 5% CO2 while other assay components are being prepared.
Serial dilutions of the HDAC inhibitors and control reference compound (1-(5-(3-((4-(1,3,4-oxadiazol-2-yl)phenoxy)methyl)-1,2,4-oxadiazol-5-yl)thiophen-2-yl)-2,2,2-trifluoroethanone) are made by first resuspending the lyophilized compound to a final concentration of 10 mM in 100% DMSO. Stocks of 70 μl aliquots of the 10 mM compound in DMSO are prepared and stored at −20° C. From one stock aliquot of each compound to be tested and the reference compound, a 16-point serial dilution is prepared according to Table 1 using a 125 μl 16-channel Matrix multi-channel pipette.
2 μl (200×) of each diluted solution and each control (full activity: 100% DMSO alone or full inhibition 1 mM) is stamped into V-bottom polypropylene 384-well compound plates using either the Bravo, Janus, or 12.5 μl 16-channel Matrix multi-channel pipette. Each well with the 200× compound solution is diluted 1:20 by the addition of 38 μl Jurkat assay buffer+DMSO (9.5% DMSO, RPMI without phenol red, 0.09% FBS, 9 mM Hepes, and 0.9 mM Sodium Pyruvate equilibrated to room temperature)
5× (500 μM) substrate is prepared just prior to the addition to the assay. The 5× substrate is prepared by diluting a 100 mM Boc-Lys(Tfa)-AMC in DMSO solution 1:200 by adding it drop-wise to Jurkat assay medium (RPMI without phenol red, 0.1% FBS, 10 mM Hepes, and 1 mM Sodium Pyruvate equilibrated to 37° C.) while vortexing at slow speed to prevent precipitation.
10 ml of 3× lysis buffer is prepared with 8.8 ml of 3× stock lysis buffer (50 mM Tris-HCl, pH 8.0, 137 mM NaCl, 2.7 mM KCl, 1 mM MgCl2, 1% Nonidet P40 Substitute equilibrated to room temperature) and 1.2 ml of 3 mg/ml Trypsin equilibrated to room temperature.
5 μl of each solution of 1:20 diluted compound from above is transferred to the Greiner microtitre assay plates with 75,000 cells/well using the Bravo. Cells are then incubated for 2 hours at 37° C. and 5% CO2. The assay is then started by adding 10 μl of 5× (500 μM) substrate to the assay plate using either the Bravo or 16-channel Matrix multi-channel pipette. The cells are then incubated for 3 hours at 37° C. and 5% CO2. Next, 25 μl of 3× lysis buffer is added to each well using either the 125 μl 16 channel pipette or the Bravo. The assay plate is then incubated overnight (15-16 hours) at 37° C. and 5% CO2. The following day, the plates are shaken on an orbital shaker for 1 minute at 900 rpm. Finally the top read fluorescence (Excitation: 355 nm, Emission: 460 nm) is measured using PerkinElmer EnVision.
As to `COc1ncc(C2=C[C@](C(=O)NO)(c3cccc(F)c3C)CC2)cc1F` [Example 23, (S)-1-(3-fluoro-2-methylphenyl)-3-(5-fluoro-6-methoxypyridin-3-yl)-N-hydroxycyclopent-2-enecarboxamide], the IC50 is 220 nM. Take `Cc1c(F)cccc1[C@]1(C(=O)NO)C=C(c2cnccn2)CC1` [Example 7, (R)-1-(3-fluoro-2-methylphenyl)-N-hydroxy-3-(pyrazin-2-yl)cyclopent-2-ene carboxamide]: the IC50 was over 50000 nM. On to `Cc1c(F)cccc1[C@@]1(C(=O)NO)C=C(c2cncnc2)CC1` [Example 14, (S)-1-(3-fluoro-2-methylphenyl)-N-hydroxy-3-(pyrimidin-5-yl)cyclopent-2-enecarboxamide], for which the IC50 stood at 360 nM. On to `Cc1c(F)cccc1[C@@]1(C(=O)NO)C=C(c2cccc3cnsc23)CC1` [Example 29, (S)-3-(benzo[d]isothiazol-7-yl)-1-(3-fluoro-2-methylphenyl)-N-hydroxycyclopent-2-enecarboxamide], for which the IC50 worked out at 200 nM. Consider `Cc1c(F)cccc1[C@@]1(C(=O)NO)C=C(c2cnn(CC(F)(F)F)c2)CC1` [Example 28, (S)-1-(3-fluoro-2-methylphenyl)-N-hydroxy-3-(1-(2,2,2-trifluoroethyl)-1H-pyrazol-4-yl)cyclopent-2-enecarboxamide], for which the IC50 came to 160 nM. As for `Cc1c(F)cccc1[C@@]1(C(=O)NO)C=C(c2cnn(C(F)F)c2)CC1` [Example 18, (S)-3-(1-(difluoromethyl)-1H-pyrazol-4-yl)-1-(3-fluoro-2-methylphenyl)-N-hydroxycyclopent-2-enecarboxamide], the IC50 is 160 nM. The same measure for `Cc1c(F)cccc1[C@@]1(C(=O)NO)C=C(c2ccc3nc(C(F)(F)F)cnc3c2)CC1` [Example 20, (S)-1-(3-fluoro-2-methylphenyl)-N-hydroxy-3-(2-(trifluoromethyl)quinoxalin-6-yl)cyclopent-2-enecarboxamide]: 140 nM; for `Cc1c(F)cccc1[C@@]1(C(=O)NO)C=C(C2CC2)CC1` [Example 32, (S)-3-cyclopropyl-1-(3-fluoro-2-methylphenyl)-N-hydroxycyclopent-2-enecarboxamide]: 730 nM.

Take `O=C(NO)C1(c2ccccc2F)CC=CC1` [Example 31, 1-(2-fluorophenyl)-N-hydroxy-cyclopent-3-enecarboxamide]: the IC50 amounted to 44500 nM. The result for `O=C(NO)C1(c2ccccc2)CC=C(c2cncc(F)c2)CC1` (stereo not shown) [Example 43, 4-(5-fluoropyridin-3-yl)-N-hydroxy-1,2,3,6-tetrahydro-[1,1′-biphenyl]-1-carboxamide] reads 39000 nM; that for `Cc1c(F)cccc1[C@@]1(C(=O)NO)C=C(c2cncc(Cl)c2)CC1` [Example 11, (S)-3-(5-chloropyridin-3-yl)-1-(3-fluoro-2-methylphenyl)-N-hydroxycyclopent-2-enecarboxamide], 120 nM.

As for `Cc1c(F)cccc1[C@@]1(C(=O)NO)C=C(c2ccccc2)CC1` [Example 2, (S)-1-(3-fluoro-2-methylphenyl)-N-hydroxy-3-phenylcyclopent-2-enecarboxamide], the IC50 came out at 170 nM. On to `Cc1ccccc1C1=C[C@](C(=O)NO)(c2cccc(F)c2C)CC1` [Example 4, (S)-1-(3-fluoro-2-methyl-phenyl)-N-hydroxy-3-(o-tolyl)cyclopent-2-ene-1-carboxamide], for which the IC50 came out at 360 nM.

Regarding `Cc1c(F)cccc1[C@@]1(C(=O)NO)C=C(c2ccn3ccnc3c2)CC1` [Example 21, (S)-1-(3-fluoro-2-methylphenyl)-N-hydroxy-3-(imidazo[1,2-a]pyridin-7-yl)cyclopent-2-enecarboxamide], the IC50 was 60 nM. In the case of `Cc1c(F)cccc1[C@@]1(C(=O)NO)C=C(c2cc(F)cnc2C2CC2)CC1` [Example 19, (S)-3-(2-cyclopropyl-5-fluoropyridin-3-yl)-1-(3-fluoro-2-methylphenyl)-N-hydroxycyclopent-2-enecarboxamide], the IC50 is 500 nM. On to `Cc1c(F)cccc1[C@@]1(C(=O)NO)C=C(c2cnccn2)CC1` [Example 8, (S)-1-(3-fluoro-2-methylphenyl)-N-hydroxy-3-(pyrazin-2-yl)cyclopent-2-ene carboxamide], for which the IC50 was determined as 15700 nM. As for `Cc1c(F)cccc1[C@@]1(C(=O)NO)C=C(c2cnc(C3CC3)nc2)CC1` [Example 24, (S)-3-(2-cyclopropylpyrimidin-5-yl)-1-(3-fluoro-2-methylphenyl)-N-hydroxycyclopent-2-enecarboxamide], the IC50 is 80 nM. As to `Cc1ccccc1C1=C[C@@](C(=O)NO)(c2cccc(F)c2C)CC1` [Example 3, (R)-1-(3-fluoro-2-methyl-phenyl)-N-hydroxy-3-(o-tolyl)cyclopent-2-ene-1-carboxamide], the half-maximal inhibitory concentration (IC50) is 4600 nM. Take `Cc1c(F)cccc1[C@@]1(C(=O)NO)C=C(c2ccc(C(F)(F)F)nc2)CC1` [Example 16, (S)-1-(3-fluoro-2-methylphenyl)-N-hydroxy-3-(6-(trifluoromethyl)pyridin-3-yl)cyclopent-2-enecarboxamide]: the IC50 came to 100 nM.

`O=C(NO)[C@@]1(c2ccccc2)C=C(c2ccccc2)CC1` [Example 34, (R)-N-hydroxy-1,3-diphenylcyclopent-2-enecarboxamide]: the IC50 was over 50000 nM. Consider `Cc1c(F)cccc1[C@@]1(C(=O)NO)C=C(c2cncc(C(F)(F)F)c2)CC1` [Example 17, (S)-1-(3-fluoro-2-methylphenyl)-N-hydroxy-3-(5-(trifluoromethyl)pyridin-3-yl)cyclopent-2-enecarboxamide], for which the IC50 turned out to be 200 nM. As for `Cc1c(F)cccc1[C@@]1(C(=O)NO)C=C(c2ccnn2C)CC1` [Example 27, (S)-1-(3-fluoro-2-methylphenyl)-N-hydroxy-3-(1-methyl-1H-pyrazol-5-yl)cyclopent-2-enecarboxamide], the IC50 worked out at 330 nM.

Consider `O=C(NO)[C@]1(c2ccccc2)C=C(c2ccccc2)CC1` [Example 33, (S)-N-hydroxy-1,3-diphenylcyclopent-2-enecarboxamide], for which the IC50 is 2500 nM.

`Cc1c(F)cccc1[C@@]1(C(=O)NO)C=C(c2ccnc(C(F)(F)F)c2)CC1` [Example 13, (S)-1-(3-fluoro-2-methylphenyl)-N-hydroxy-3-(2-(trifluoromethyl)pyridin-4-yl)cyclopent-2-enecarboxamide]: the IC50 stood at 270 nM.

`Cc1c(F)cccc1[C@@]1(C(=O)NO)C=C(c2ccc3cnn(C(F)F)c3c2)CC1` [Example 39, (S)-3-(1-(difluoromethyl)-1H-indazol-6-yl)-1-(3-fluoro-2-methylphenyl)-N-hydroxycyclopent-2-enecarboxamide]: the IC50 came out at 30 nM. For `Cc1c(F)cccc1[C@@]1(C(=O)NO)C=C(c2ccc3onc(C)c3c2)CC1` [Example 22, (S)-1-(3-fluoro-2-methylphenyl)-N-hydroxy-3-(3-methylbenzo[d]isoxazol-5-yl)cyclopent-2-enecarboxamide], the 50% inhibitory concentration (IC50) was 60 nM. For `Cc1c([C@@]2(C(=O)NO)C=C(c3ccc4cnn(C)c4c3)CC2)ccc(F)c1F` [Example 42, (S)-1-(3,4-difluoro-2-methylphenyl)-N-hydroxy-3-(1-methyl-1H-indazol-6-yl)cyclopent-2-enecarboxamide], the IC50 amounted to 20 nM. Regarding `Cc1c(F)cccc1[C@@]1(C(=O)NO)C=C(c2ccc3nccnc3c2)CC1` [Example 12, (S)-1-(3-fluoro-2-methylphenyl)-N-hydroxy-3-(quinoxalin-6-yl)cyclopent-2-enecarboxamide], the IC50 was found to be 20 nM.
